The text below walks through data of paper PMC5612938, “A multiple biomarker assay for quality assessment of botanical drugs using a versatile microfluidic chip” (Scientific Reports, 2017).

The target in assay [1] is T1, Thrombin (from human plasma) (Homo sapiens, UniProt P00734).
T1 construct: Thrombin (from human plasma); purchased Sigma-Aldrich; host or cells: human plasma
The assay is described as follows: on-chip thrombin inhibition assay (S-2238 hydrolysis, absorbance 405 nm). Conditions: for thrombin. In kind it is biochemical. On the procedure: To enhance the performance of the on-chip assay, experimental parameters such as concentrations of enzymes and substrates, substrate reaction time, and incubation time of samples and enzymes were stepwise optimized. The activity of thrombin was determined by measuring the hydrolysis of chromogenic substrate S-2238 (HD-Phe-Pip-Arg-pNA) at 405 nm. As depicted in Fig. 2a, the absorbance increased rapidly along with the elevated concentrations of thrombin, while it reached a plateau at 0.5 U/mL. […] Moreover, it was clear from Fig. 2d that the maximum inhibitory effect of QSYQ sample (I1 of Table 1 in this assay) on thrombin was observed after 60 min of incubation. Therefore, to achieve favorable response and prevent signal saturation, optimal assay conditions for thrombin were determined to be 0.2 U/mL, 0.31 mM, 30 min and 60 min for the final concentrations of thrombin and S-2238, substrate reaction time and incubation time, respectively. […] In this assay, the concentrations of ACE and FAPGG were finally set at 0.027 U/mL and 0.72 mM, where the background value was lower and the reaction time was relatively shorter (30 min).
The optimized protocol was first applied to assess the quality of 11 batches of QSYQ intermediates (Table 1). Enzyme inhibition (in percentages) was employed as an indicator of drug quality and calculated according to the following equations: thrombin inhibition (%) = [1 − (AQSYQ/Ablank)] × 100; ACE inhibition (%) = [1 − (ΔAQSYQ/ΔAblank)] × 100; where AQSYQ and Ablank were the absorbance of the test sample and the blank sample after the enzymatic reaction (the background value was subtracted), and ΔAQSYQ and ΔAblank were the absorbance decrease between 0 min and 30 min of the samples. A scatter plot was generated to display the inhibition result of thrombin and ACE simultaneously. […] Moreover, artificial abnormal samples I6, I7 and I8, each with one abnormal (pre-extracted) herb, presented relatively lower inhibitions compared with I1.
Thrombin (from human plasma), ACE (from rabbit lung), FAPGG and captopril were purchased from Sigma-Aldrich (St. Louis, USA). S-2238 was obtained from Aglyco (Beijing, China). AEBSF-HCl was purchased from Selleckchem (Houston, USA). Trizma base (Tris) was obtained from Sangon Biotech (Shanghai, China) and dimethyl sulfoxide (DMSO) from J&K Scientific (Beijing, China). All other chemicals were purchased from Sinopharm Chemical (Shanghai, China) unless otherwise indicated. 0.2 M Phosphate buffer (PB, pH 6.5), and 50 mM Tris-HCl buffer (200 mM NaCl, pH 8.3) were prepared as assay buffers for thrombin and ACE, respectively.
MBs (10 mg/mL) were diluted 10 times in PB or Tris-HCl buffer, and 10 μL of the diluted MBs (1 mg/mL) were injected into one channel of the chip using a syringe infusion pump (Harvard Apparatus, USA) and retained by an external magnet. Then, 10 μL of thrombin or ACE solution was added and incubated with MBs for two hours at room temperature to form enzyme-MB complexes. The magnet was manually controlled to move MBs back and forth to enhance the ratio of reaction. Subsequently, MBs were washed twice in assay buffer and magnetically transferred to the other channel through the fluidic bridge, whose opening and closing was controlled by a pneumatic valve. Next, 10 μL of sample solutions of tested drug and 10 μL of enzymatic substrate were sequentially infused to the channel by the pump and incubated with the enzyme. When the enzymatic reaction was finished, the MBs were retained in the channel, and air was injected into the channel from the inlet using a syringe to push all the reacted solution to a 384-well plate. The absorbance of the solution was then monitored at 405 nm (for S-2238) or 340 nm (for FAPGG) using an Infinite F200 spectrophotometer (Tecan, Männedorf, Switzerland). Moreover, after detection, the reaction channel was washed three times by assay buffer to remove unbound constituents. […]

In assay [2] the target is T2, ACE (from rabbit lung) (Oryctolagus cuniculus, UniProt P12822).
T2 construct: ACE (from rabbit lung); purchased Sigma-Aldrich; host or cells: rabbit lung
T2 sequence (P12822 34-1310): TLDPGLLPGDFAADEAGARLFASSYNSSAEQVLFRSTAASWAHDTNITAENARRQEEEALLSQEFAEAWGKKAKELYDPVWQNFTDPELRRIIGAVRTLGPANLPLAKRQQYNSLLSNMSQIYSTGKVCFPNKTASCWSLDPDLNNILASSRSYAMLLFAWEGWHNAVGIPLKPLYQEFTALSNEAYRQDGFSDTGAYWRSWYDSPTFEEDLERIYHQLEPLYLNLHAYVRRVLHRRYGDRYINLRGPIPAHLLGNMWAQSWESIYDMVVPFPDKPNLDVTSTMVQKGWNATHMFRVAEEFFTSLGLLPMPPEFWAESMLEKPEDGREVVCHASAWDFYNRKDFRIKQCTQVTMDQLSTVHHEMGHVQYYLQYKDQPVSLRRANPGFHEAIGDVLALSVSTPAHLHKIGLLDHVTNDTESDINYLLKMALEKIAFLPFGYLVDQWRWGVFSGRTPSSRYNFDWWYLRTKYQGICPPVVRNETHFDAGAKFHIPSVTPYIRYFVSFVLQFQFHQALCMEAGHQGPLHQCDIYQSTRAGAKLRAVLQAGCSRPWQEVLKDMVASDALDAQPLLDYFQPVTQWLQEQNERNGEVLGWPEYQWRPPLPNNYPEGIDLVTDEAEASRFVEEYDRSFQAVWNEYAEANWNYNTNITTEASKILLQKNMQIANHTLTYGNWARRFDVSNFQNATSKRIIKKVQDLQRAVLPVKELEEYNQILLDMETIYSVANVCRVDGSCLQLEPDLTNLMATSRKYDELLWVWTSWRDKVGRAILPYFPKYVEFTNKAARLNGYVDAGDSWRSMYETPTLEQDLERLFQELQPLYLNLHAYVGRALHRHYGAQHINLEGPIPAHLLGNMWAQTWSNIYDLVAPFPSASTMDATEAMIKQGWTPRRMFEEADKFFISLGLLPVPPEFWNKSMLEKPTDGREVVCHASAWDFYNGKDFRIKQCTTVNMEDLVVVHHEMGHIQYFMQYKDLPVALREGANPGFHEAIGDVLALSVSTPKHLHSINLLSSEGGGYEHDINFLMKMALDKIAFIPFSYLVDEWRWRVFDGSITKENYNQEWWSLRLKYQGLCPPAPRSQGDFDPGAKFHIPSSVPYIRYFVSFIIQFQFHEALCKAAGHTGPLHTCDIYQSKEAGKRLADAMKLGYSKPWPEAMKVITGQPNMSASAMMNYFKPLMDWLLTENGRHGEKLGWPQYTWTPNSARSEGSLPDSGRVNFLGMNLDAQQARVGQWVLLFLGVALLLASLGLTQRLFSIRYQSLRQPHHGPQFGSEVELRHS
Briefly: on-chip ACE inhibition assay (FAPGG hydrolysis, absorbance decrease 340 nm). In kind it is biochemical. Further details: key to IC50 (μM) or inhibition rate: /: No obvious inhibition observed. Conditions: for IC50 (μM) or inhibition rate: symbol / = no obvious inhibition. On the procedure:
To enhance the performance of the on-chip assay, experimental parameters such as concentrations of enzymes and substrates, substrate reaction time, and incubation time of samples and enzymes were stepwise optimized.
The optimized protocol was first applied to assess the quality of 11 batches of QSYQ intermediates (Table 1). Enzyme inhibition (in percentages) was employed as an indicator of drug quality and calculated according to the following equations: thrombin inhibition (%) = [1 − (AQSYQ/Ablank)] × 100; ACE inhibition (%) = [1 − (ΔAQSYQ/ΔAblank)] × 100; where AQSYQ and Ablank were the absorbance of the test sample and the blank sample after the enzymatic reaction (the background value was subtracted), and ΔAQSYQ and ΔAblank were the absorbance decrease between 0 min and 30 min of the samples.
Thrombin (from human plasma), ACE (from rabbit lung), FAPGG and captopril were purchased from Sigma-Aldrich (St. Louis, USA). […] AEBSF-HCl was purchased from Selleckchem (Houston, USA). Trizma base (Tris) was obtained from Sangon Biotech (Shanghai, China) and dimethyl sulfoxide (DMSO) from J&K Scientific (Beijing, China). All other chemicals were purchased from Sinopharm Chemical (Shanghai, China) unless otherwise indicated. 0.2 M Phosphate buffer (PB, pH 6.5), and 50 mM Tris-HCl buffer (200 mM NaCl, pH 8.3) were prepared as assay buffers for thrombin and ACE, respectively.
MBs (10 mg/mL) were diluted 10 times in PB or Tris-HCl buffer, and 10 μL of the diluted MBs (1 mg/mL) were injected into one channel of the chip using a syringe infusion pump (Harvard Apparatus, USA) and retained by an external magnet. Then, 10 μL of thrombin or ACE solution was added and incubated with MBs for two hours at room temperature to form enzyme-MB complexes. The magnet was manually controlled to move MBs back and forth to enhance the ratio of reaction. Subsequently, MBs were washed twice in assay buffer and magnetically transferred to the other channel through the fluidic bridge, whose opening and closing was controlled by a pneumatic valve. Next, 10 μL of sample solutions of tested drug and 10 μL of enzymatic substrate were sequentially infused to the channel by the pump and incubated with the enzyme. When the enzymatic reaction was finished, the MBs were retained in the channel, and air was injected into the channel from the inlet using a syringe to push all the reacted solution to a 384-well plate. […] Moreover, after detection, the reaction channel was washed three times by assay buffer to remove unbound constituents. 20 μL of 80% aqueous methanol was then injected and incubated with MBs for one hour to dissociate the bound constituents. The resulting solutions of replicates were combined, evaporated by a centrifugal evaporator, reconstituted in 80% aqueous methanol, centrifuged at 10,000 rpm for 10 min, and analyzed by LC-MS for chemical identification.

Assay [3] deals with T2, ACE (from rabbit lung). Briefly: on-chip affinity screening, binding degree by LC-MS peak area vs protein-free control (ACE). Particulars: for ACE; [(As − Ac)/As] × 100, sample vs protein-free control, EIC peak area. From the text:
In addition to quality assessment, the microfluidic chip can also function as “affinity chromatography” to identify bioactive constituents from botanical drugs in a convenient and efficient manner. After the bioassay, the bound phytochemicals were dissociated from the enzymes and accurately identified by LC-MS. The material used for the chambers in microfluidic system, polydimethylsiloxane (PDMS), is apt to adsorb small molecules nonspecifically, thus a protein-free control was applied to reflect the degree of nonspecific binding of compounds to the chip. Peak areas were obtained from the extracted ion chromatography (EIC) in an ion-trap mass spectrometry (IT-MS), and binding degree (binding degree % = [(As − Ac)/As] × 100, where As and Ac were the peak area in the sample and control, respectively) was calculated to indicate binding specificity. […] All these peaks were unambiguously confirmed via comparisons with chemical standards in terms of retention time and mass spectra (Table 2), and five thrombin inhibitors (danshensu, salvianolic acid B, salvianolic acid C, rosmarinic acid and ginsenoside Rg1) and six ACE inhibitors (astragaloside IV, ononin, formononetin, calycosin, danshensu and salvianolic acid B) were preliminarily identified. […] Enzyme inhibition assays of these hit compounds were then performed to verify the screening results. […] Compounds showing an inhibition rate over 70% were subjected to IC50 measurement.
MBs (10 mg/mL) were diluted 10 times in PB or Tris-HCl buffer, and 10 μL of the diluted MBs (1 mg/mL) were injected into one channel of the chip using a syringe infusion pump (Harvard Apparatus, USA) and retained by an external magnet. Then, 10 μL of thrombin or ACE solution was added and incubated with MBs for two hours at room temperature to form enzyme-MB complexes. The magnet was manually controlled to move MBs back and forth to enhance the ratio of reaction. Subsequently, MBs were washed twice in assay buffer and magnetically transferred to the other channel through the fluidic bridge, whose opening and closing was controlled by a pneumatic valve. Next, 10 μL of sample solutions of tested drug and 10 μL of enzymatic substrate were sequentially infused to the channel by the pump and incubated with the enzyme. When the enzymatic reaction was finished, the MBs were retained in the channel, and air was injected into the channel from the inlet using a syringe to push all the reacted solution to a 384-well plate. The absorbance of the solution was then monitored at 405 nm (for S-2238) or 340 nm (for FAPGG) using an Infinite F200 spectrophotometer (Tecan, Männedorf, Switzerland). Moreover, after detection, the reaction channel was washed three times by assay buffer to remove unbound constituents. 20 μL of 80% aqueous methanol was then injected and incubated with MBs for one hour to dissociate the bound constituents. The resulting solutions of replicates were combined, evaporated by a centrifugal evaporator, reconstituted in 80% aqueous methanol, centrifuged at 10,000 rpm for 10 min, and analyzed by LC-MS for chemical identification.
An Agilent 1100 HPLC system (Agilent Technologies, Waldbronn, Germany) coupled with an LCQ Deca XP^plus IT-MS (Thermo Finnigan, San Jose, CA, USA) equipped with an electrospray ionization (ESI) interface was employed for structure elucidation of the bounded constituents. The analysis was performed in negative ionization mode under following operation parameters: scan range m/z 100–1500; capillary voltage −15 V; source voltage −3 kV; capillary temperature 350 °C; sheath gas (N2) 60 arb; auxiliary gas (N2) 20 arb.

The IC50 is the concentration needed to halve the response being measured.

Where a name gives a salt, the structure may show the parent alone. Marks after values point to notes of the source that are not given here.

As for `NCCc1ccc(S(=O)(=O)F)cc1` [AEBSF-HCl, reference compound], the IC50 in assay [1] is 3.91 µM.
Take `CC(C)(O)[C@@H]1CC[C@](C)([C@H]2[C@@H](O)C[C@@]3(C)[C@@H]4C[C@H](O[C@@H]5O[C@H](CO)[C@@H](O)[C@H](O)[C@H]5O)[C@H]5C(C)(C)[C@@H](O[C@@H]6OC[C@@H](O)[C@H](O)[C@H]6O)CC[C@@]56C[C@@]46CC[C@]23C)O1` [Astragaloside IV]: at ACE (from rabbit lung) [2] (for ACE), the “IC50 (μM) or inhibition rate” value is listed as “/^g”. For the same molecule, at ACE (from rabbit lung) [3], the “Binding degree (%)” value is 28.3^d %.
For the molecule `COc1ccc(-c2coc3cc(O)ccc3c2=O)cc1O` [Calycosin], at ACE (from rabbit lung) [2] (for ACE), the “IC50 (μM) or inhibition rate” value was “/^g”. Moreover, the “Binding degree (%)” value at ACE (from rabbit lung) [3] is 19.1^d %.
Turning to `COc1ccc(-c2coc3cc(O)ccc3c2=O)cc1` [Formononetin], the “IC50 (μM) or inhibition rate” value on ACE (from rabbit lung) [2] (for ACE) is “/^g”. Further, on ACE (from rabbit lung) [3], the “Binding degree (%)” value is on record as 53.8^d %.
On to `COc1ccc(-c2coc3cc(O[C@@H]4O[C@H](CO)[C@@H](O)[C@H](O)[C@H]4O)ccc3c2=O)cc1` [Ononin], for which the “ACE inhibition (in words)” value on ACE (from rabbit lung) [2] (at tested concentrations) is on record as “showed ACE inhibitions”. In addition, the inhibition rate on ACE (from rabbit lung) [2] (for ACE, maximum inhibition rate observed in the assay) was found to be 30.6%^d. In addition, at ACE (from rabbit lung) [3], the “Binding degree (%)” value is reported as 52.6^d %.
